Patent publication EP4763839A1 (Pamplona Therapeutics (Shenzhen) Co., Ltd., priority 2023, dated 2025)
pIC50: −log10 of the molar value.

Columns and labels:
IL-6 = assay: Inhibition of R848-induced IL-6 release in human PBMCs, IL-6 ELISA; assay type: cell-based; settings: compound 24 hours, then R848 10 µg/mL 5 hours
Protocol: Example 3: Detection of inhibition of R848-induced IL-6 release
Cryopreserved human PBMCs (Milestone® Biotechnologies, PB010C-W) were thawed and resuspended in RPMI-1640 medium (Gibco, 22400-105) supplemented with 10% fetal bovine serum (Gibco, 10099-141), 100 U/mL penicillin, and 100 µg/mL streptomycin (Gibco, 15140122). Subsequently, 190 µL of the PBMC suspension was added to each well of 96-well clear cell culture plates (Corning, 3599) to achieve a density of 1×10^5 cells/well. The cell plates were incubated at 37°C in a 5% CO2 incubator for 30 minutes. Then, 5 µL of diluted compound solution was added to the corresponding cell-seeded wells to achieve final concentrations ranging from 0.046 to 3,000 nM. The final concentration of DMSO was 0.1%. After the compound-treated cell plate was incubated at 37°C in a 5% CO2 incubator for 24 hours, 5 µL of R848 (MCE, HY-13740) was added to achieve a final concentration of 10 µg/mL. The cell plates were incubated again at 37°C in a 5% CO2 incubator for 5 hours, then centrifuged at 1,000 rpm for 1 minute. 100 µL of the cell supernatant from each well was transferred to a new 96-well clear cell culture plate for IL-6 concentration testing.
Interleukin-6 (IL-6) ELISA assay
The IL-6 concentration in the supernatant of R848-induced human PBMCs was determined using a Human IL-6 (interleukin-6) ELISA KIT (4Bio, CHE0009-048). IL-6 standard solutions at different concentrations, ranging from 3.9 to 250 pg/mL, were prepared according to the manufacturer's instructions. 100 µL of each concentration of the IL-6 standard solution and the pre-diluted test cell supernatant samples were added separately to anti-IL-6 antibody-coated and blocked clear 96-well plates, followed by incubation at 37°C for 1.5 hours. According to the product instructions, the plates were washed, 100 µL of biotinylated antibody was added, and the plates were incubated at 37°C for 1 hour. The plates were washed, 100 µL of enzyme conjugate working solution was added. The plates were incubated at 37°C for 30 minutes, and then washed. 100 µL of chromogenic substrate was added, and the plates were incubated at 37°C for 10-20 minutes. The reaction was terminated by adding 100 µL of stop solution. After the reaction, the OD value at 450 nm was measured in absorbance mode using an Envision microplate reader (PerkinElmer). A standard curve was plotted using the corrected OD values of the various concentrations of IL-6 standard solutions. The IL-6 concentration in each cell supernatant was then determined on the basis of the corresponding concentration for the corrected OD value of the test sample on the standard curve. […] Subsequently, the IC50 value of the compound was calculated by performing non-linear curve fitting of concentration versus inhibition rate using GraphPad Prism 9.

IRAK4 = biological target: T1, IRAK4 (Homo sapiens, UniProt Q9NWZ3); assay: Degradation of IRAK4 in THP1 cells, Western blot; assay type: cell-based; design: Degradation of IRAK4 in THP1 by compound; host or cells: THP-1; settings: THP-1 cells, 24 hours of incubation; for DC50: IRAK4 protein by Western blot, read-out: DC50; for Dmax: maximum degradation rate, read-out: Dmax
T1 sequence (Q9NWZ3 1-460): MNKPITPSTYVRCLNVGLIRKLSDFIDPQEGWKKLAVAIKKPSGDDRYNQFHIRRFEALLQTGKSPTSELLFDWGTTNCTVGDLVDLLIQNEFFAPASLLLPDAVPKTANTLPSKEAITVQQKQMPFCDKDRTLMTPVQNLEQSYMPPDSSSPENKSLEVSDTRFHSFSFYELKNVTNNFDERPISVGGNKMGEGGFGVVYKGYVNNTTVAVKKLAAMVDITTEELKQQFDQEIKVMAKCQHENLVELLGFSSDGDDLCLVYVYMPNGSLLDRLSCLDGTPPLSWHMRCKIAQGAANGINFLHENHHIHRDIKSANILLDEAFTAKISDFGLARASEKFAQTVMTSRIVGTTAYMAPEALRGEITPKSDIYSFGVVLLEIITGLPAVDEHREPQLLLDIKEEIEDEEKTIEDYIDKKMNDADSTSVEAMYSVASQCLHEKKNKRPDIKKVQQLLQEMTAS
In short: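 THP1 cells treated 24 h, lysed; lysates normalised by BCA, 40 μg protein per lane on 10% SDS-PAGE, anti-IRAK4 Western blot with chemiluminescence detection.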

Row | Compound | pIC50 (IL-6; PBMC) | DC50 (IRAK4) | Dmax (IRAK4) | pIC50 (IL-6)
1 | COc1ccc(C(=O)N2CCC(CCN3CCN(c4ccc(-n5cc(NC(=O)c6cccc(C(F)(F)F)n6)c(C(F)F)n5)cc4)CC3)CC2)cc1N1CCC(=O)NC1=O [Compound A148] | 7.52 to 8.00 | 100 to 1000 nM | > 60% | –
2 | COc1ccc(C(=O)N2CCC(CCN3CCN(c4ccc(N5C=C(NC(=O)c6cccc(C(F)(F)F)n6)C(=C=O)N5)cc4)CC3)C2)cc1N1CCC(=O)NC1=O (stereo not drawn) [Compound A183, N-(3-carbonyl-1-(4-(4-(2-(1-(3-(2,4-dioxotetrahydropyrimidin-1(2H)-yl)-4-methoxybenzoyl)pyrrolidin-3-yl)ethyl)piperazin-1-yl)phenyl)-1H-pyrazol-4-yl)-6-(trifluoromethyl)picolinamide] | > 8.00 | < 100 nM | > 60% | –
3 | NC(=O)c1nn(-c2ccc(N3CCN(CCC4CCN(c5ccc(NC6CCC(=O)NC6=O)cc5F)CC4)CC3)cc2)cc1NC(=O)c1cccc(C(F)(F)F)n1 (stereo not drawn) [Compound A194, N-(3-Carbonyl-1-(4-(4-(2-(4-(((2,6-dioxopiperidin-3-yl)amino)-2-fluorophenyl)piperidin-4-yl)ethyl)piperazin-1-yl)phenyl)-1H-pyrazol-4-yl)-6-(trifluoromethyl)picolinamide] | > 8.00 | – | – | –
4 | Cn1c(=O)n(C2CCC(=O)NC2=O)c2cccc(N3CCC4(CCN(C(=O)c5ccc(-n6cc(NC(=O)c7cccc(C(F)(F)F)n7)c(C(N)=O)n6)cc5)C4)CC3)c21 (stereo not drawn) [Compound A135] | > 8.00 | < 100 nM | > 60% | –
5 | Cn1c(-c2ccc(N3CCC(CN4CCN(c5ccc(-n6cc(NC(=O)c7cccc(C(F)(F)F)n7)c(C(N)=O)n6)cc5)CC4)C3)cc2)nn(C2CCC(=O)NC2=O)c1=O (stereo not drawn) [Compound A187] | > 8.00 | < 100 nM | > 60% | –
6 | NC(=O)c1nn(-c2ccc(N3CCN(CC4CCN(c5ccc(N6CCC(=O)NC6=O)cc5)CC4)CC3)cc2)cc1NC(=O)c1cccc(C(F)(F)F)n1 [Compound A192, N-(3-carbamoyl-1-(4-((1-(4-(2,4-dioxotetrahydropyrimidin-1(2H)-yl)phenyl)piperidin-4-yl)methyl)piperazin-1-ylphenyl)-1H-pyrazol-4-yl)-6-(trifluoromethyl)picolinamide] | 7.52 to 8.00 | – | – | –
7 | NC(=O)c1nn(-c2ccc(CN3CCC4(CC3)CCN(c3ccc5c(c3)C(=O)N(C3CCC(=O)NC3=O)C5=O)CC4)cc2)cc1NC(=O)c1cccc(C(F)(F)F)n1 (stereo not drawn) [Compound A222, N-(3-carbamoyl-1-(4-((9-(2-(2,6-dioxopiperidin-3-yl)-1,3-dioxoisoindolin-5-yl)-3,9-diazaspiro[5.5]undecan-3-yl)methyl)phenyl)-1H-pyrazol-4-yl)-6-(trifluoromethyl)picolinamide] | 7.52 to 8.00 | – | – | –
8 | Cn1c(=O)n(C2CCC(=O)NC2=O)c2cccc(N3CCC(CCN4CCN(c5ccc(-n6cc(NC(=O)c7cccc(C(F)(F)F)n7)c(C(N)=O)n6)cc5)CC4)CC3)c21 (stereo not drawn) [Compound A182, N-(3-carbamoyl-1-(4-(4-(2-(1-(1-(2,6-dioxopiperidin-3-yl)-3-methyl-2-oxo-2,3-dihydro-1H-benzo[d]imidazol-4-yl)piperidin-4-yl)ethyl)piperazin-1-yl)phenyl)-1H-pyrazol-4-yl)-6-(trifluoromethyl)picolinamide] | > 8.00 | < 100 nM | > 60% | –
9 | NC(=O)c1nn(-c2ccc(N3CCN(CC4CCN(c5ccc6c(c5)C(=O)N(C5CCC(=O)NC5=O)C6=O)CC4)CC3)cc2)cc1NC(=O)c1cccc(C(F)(F)F)n1 (stereo not drawn) [Compound A122] | > 8.00 | < 100 nM | > 60% | –
10 | NC(=O)c1nn(-c2ccc(N3CCN(CCC4CCN(c5cccc(NC6CCC(=O)NC6=O)c5)CC4)CC3)cc2)cc1NC(=O)c1cccc(C(F)(F)F)n1 (stereo not drawn) [Compound A196] | > 8.00 | < 100 nM | > 60% | –
11 | COc1ccc(C(=O)N2CCC(CCN3CCN(c4ccc(-n5cc(NC(=O)c6cccc(C(F)(F)F)n6)c(C(N)=O)n5)cc4)CC3)CC2)cc1N1CCC(=O)NC1=O [Compound A144] | > 8.00 | < 100 nM | > 60% | –
12 | NC(=O)c1nn(-c2ccc(N3CCC(NCC4CCN(c5ccc6c(c5)C(=O)N(C5CCC(=O)NC5=O)C6=O)C4)CC3)cc2)cc1NC(=O)c1cccc(C(F)(F)F)n1 (stereo not drawn) [Compound A228] | > 8.00 | < 100 nM | > 60% | –
13 | N-(3-carbamoyl-1-(4-((1-(3-(2,4-dioxotetrahydropyrimidin-1(2H)-yl)-4-methoxybenzoyl)piperidin-4-yl)methyl)piperazin-1-yl)phenyl)-1H-pyrazol-4-yl)-6-(trifluoromethyl)picolinamide [Compound A175] | – | – | – | > 8.00
14 | Cn1c(=O)n(C2CCC(=O)NC2=O)c2cccc(N3CCC4(CC3)CC(NCc3ccc(-n5cc(NC(=O)c6cccc(C(F)(F)F)n6)c(C(N)=O)n5)cc3)C4)c21 (stereo not drawn) [Compound A137] | > 8.00 | < 100 nM | > 60% | –
15 | NC(=O)c1nn(-c2ccc(N3CCN(CC4CCN(c5ccc(C(=O)NC6CCC(=O)NC6=O)cc5)CC4)CC3)cc2)cc1NC(=O)c1cccc(C(F)(F)F)n1 (stereo not drawn) [Compound A171] | 7.52 to 8.00 | – | – | –
16 | COc1ccc(C(=O)N2CCN(CCN3CCN(c4ccc(-n5cc(NC(=O)c6cccc(C(F)(F)F)n6)c(C(N)=O)n5)cc4)CC3)CC2)cc1N1CCC(=O)NC1=O [Compound A143] | > 8.00 | < 100 nM | > 60% | –
17 | COc1ccc(C(=O)N2CCC(CCN3CCN(c4ccc(-n5cc(NC(=O)c6cccc(C(F)(F)F)n6)c(C(N)=O)n5)cc4)CC3)C(F)(F)C2)cc1N1CCC(=O)NC1=O (stereo not drawn) [Compound A168] | > 8.00 | – | – | –
18 | NC(=O)c1nn(-c2ccc(CN3CCC4(CC3)CN(c3ccc5c(c3)C(=O)N(C3CCC(=O)NC3=O)C5=O)C4)cc2)cc1NC(=O)c1cccc(C(F)(F)F)n1 (stereo not drawn) [Compound A224, N-(3-carbamoyl-1-(4-((2-(2-(2,6-dioxopiperidin-3-yl)-1,3-dioxoisoindolin-5-yl)-2,7-diazaspiro[3.5]nonan-7-yl)methyl)phenyl)-1H-pyrazol-4-yl)-6-(trifluoromethyl)picolinamide] | 7.52 to 8.00 | 100 to 1000 nM | > 60% | –
19 | Cn1c(=O)n(C2CCC(=O)NC2=O)c2cccc(N3CCN(CCN4CCN(c5ccc(N6C=C(NC(=O)c7cccc(C(F)(F)F)n7)C(=C=O)N6)cc5)CC4)CC3)c21 (stereo not drawn) [Compound A180, N-(3-carbonyl-1-(4-(4-(2-(4-(1-(2,6-dioxopiperidin-3-yl)-3-methyl-2-oxo-2,3-dihydro-1H-benzo[d]imidazol-4-yl)piperazin-1-yl)ethyl)piperazin-1-yl)phenyl)-1H-pyrazol-4-yl)-6-(trifluoromethyl)picolinamide] | > 8.00 | < 100 nM | > 60% | –
20 | NC(=O)c1nn(-c2ccc(N3CCN(CC4CCN(c5cccc(NC6CCC(=O)NC6=O)c5)CC4)CC3)cc2)cc1NC(=O)c1cccc(C(F)(F)F)n1 (stereo not drawn) [Compound A197] | 7.52 to 8.00 | < 100 nM | > 60% | –
21 | Cn1c(-c2ccc(N3CCC(CN4CCN(c5ccc(-n6cc(NC(=O)c7cccc(C(F)(F)F)n7)c(C(N)=O)n6)cc5)CC4)CC3)cc2)nn(C2CCC(=O)NC2=O)c1=O (stereo not drawn) [Compound A189] | 7.52 to 8.00 | 100 to 1000 nM | > 60% | –
